Test system: CSPG-ECM components (mixed CSPGs, aggrecan, chondroitin 4-sulfate)
Assay: CSPG-ECM binding assay with insulin-FITC in vitro
Method: To determine the interaction of insulin with CSPG-ECM components in vitro, flat-bottom 96-well plates were first coated with 10 μg/ml poly-L-lysine overnight, followed by a rinsing with water. A purified CSPGs mix containing neurocan, phosphacan, versican and aggrecan (CC117, Merck Millipore, MA), purified aggrecan ([…], Merck Millipore, MA) or purified chondroitin 4-sulfate ([…], Selleck Chemicals, TX), were coated onto the 96-well plates at a concentration of 10 μg/ml for 4 h at RT, followed by a rinse with water. Insulin-FITC was incubated on plates containing ECM at concentrating ranging from 5 ng/ml-1 mg/ml for 2 h at RT and protected from light. Control wells contained either no ECM, bovine serum albumin (10 μg/ml) or poly-L-lysine alone. Wells were washed 3 times with water and imaged at 495 nm using a SPECTROstar Nano Microplate Reader (BMG Labtech, Germany). To digest CSPG-ECM or to negate CSPG-ECM negative charge. wells were incubated with either chABC (0.5 U/ml) or poly-l-arginine (10 μg/ml, […], Merck Millipore, MA) for 1 h at 37° C. after the ECM coating, washed 3 times with water and then incubated with insulin-FITC.

Row | Substance | binding of insulin-FITC to mixed CSPGs, aggrecan and C4S (2-hours incubation on coated plates) | insulin-ECM interactions (insulin-FITC with CSPG mix) in the presence of the agent (in the presence of poly-arginine)
1 | insulin-FITC: fluorescein isothiocyanate tagged insulin | specific dose-dependent binding | 
2 | poly-arginine |  | significantly reduced
